The source made the active and inactive calls. The rule behind the calls is not given here.
What was measured:
Staphylococcus aureus = experiment: Antibacterial activity against Staphylococcus aureus at 25 ug/disk by disc-diffusion assay; format: functional, organism-based
Bacillus subtilis = experiment: Antibacterial activity against Bacillus subtilis at 10 ug/disk by disc-diffusion assay; format: functional, organism-based

CC(C)[C@H]1CC[C@@H](C)C2=CC[C@](C)(NC=O)C[C@@H]21 (relative stereo) was tested, and the Activity (Staphylococcus aureus) was “Active” and the Activity (Bacillus subtilis) was “Active”.

Reference: ChEMBL document CHEMBL1159218, “Metabolites of the Palauan sponge Axinyssa aplysinoides” (J Nat Prod, 1995)
